Values after ≈ are worked out from the molar mass of the structure shown. Like-named read-outs stand apart in the source and are kept apart here.
Columns and labels:
[1] = tested on: NCTC 13438; test: Effect of efflux pump inhibitors (EPIs) on MIC; assay type: cell-based, K. pneumoniae; conditions: for MIC: Klebsiella pneumoniae
Protocol: (§1) 1. Grow up cultures of bacterial strains to be tested overnight.
(§2) 2. Dilute down overnight cultures to concentration of 1×10^6 bacteria/ml (OD0.01) in Tryptic soy broth (TSB).
(§3) 3. Add 100 μl of TSB media to column 2-column 12 in 96 well plate (keeping column 1 clear).
4. Make up compound to a concentration of 64 μg/ml in water.
(§4) 5. Add 100 μl of antibiotic solution to the 1st and 2nd columns.
6. Using a multichannel pipette take 100 μl from the 2nd column wells and pipette into 3rd column wells and repeat down the 96 well plate (remember to include controls i.e. uninfected media and media with no antibiotic).
7. To each well (except uninfected control row H) add 50 μl/well of EPI at 4× final concentration in TSB.
9. In wells used to test the effect of the EPI carbonyl cyanide 3-chlorophenylhydrazone (CCCP) the CCCP is added at 10 μg/ml final concentration.
10. In wells used to test the effect of the EPI phenylalanine-arginine β-naphthylamide (PABN) the PABN is added at 25 μg/ml final concentration.
11. In wells used to test the effect of the PABN+Mg, the PABN is added at 25 μg/ml final concentration, with 1 mM MgSO4 in TSB.
12. Wrap plate with parafilm to prevent evaporation.
13. Leave at desired temperature (37° C. unless specified elsewhere) for 20 hours.
14. Next day check plates for growth and measure optical density (i.e. absorbance) at a wavelength of 600 nm (OD600).
Compound KMR-14-33 was tested against a range of bacterial species using the above protocol. Compound PP-A148 was also tested against a more limited range of bacterial species using the above protocol. For KMR-14-33 measurements were carried out for the compound alone, for the compound plus CCCP, for the compound plus PABN and for the compound plus PABN and plus Mg. For PP-A148 measurements were carried out for the compound alone and for the compound plus PABN.

[2] = tested on: A. baumannii UKA7; test: General MIC protocol, Gram negative; assay type: cell-based; conditions: Acinetobacter baumannii
Procedure, shortened: (§5)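 Compound was prepared at 64 μg/ml in water, serially halved across the plate and diluted twofold again by added inoculum. Final bacterial density was 5×10^5/ml in TSB. After 20 hours at 37° C, wells were scored for growth by OD600.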

[3] = tested on: B. multivorans C1576 (LMG 16660); test: General MIC protocol, Gram negative; assay type: cell-based; conditions: Burkholderia multivorans, LMG16660
Procedure, shortened: as §5

[4] = tested on: B. multivorans C1962 (LMG 16665); test: General MIC protocol, Gram negative; assay type: cell-based; conditions: Burkholderia multivorans, LMG16665
Procedure, shortened: as §5

[5] = tested on: B. cepacia ATCC 17765; test: General MIC protocol, Gram negative; assay type: cell-based; conditions: Burkholderia cepacia, ATCC17765
Procedure, shortened: as §5

[6] = tested on: A. baumannii ADP1; test: General MIC protocol, Gram negative; assay type: cell-based; conditions: Acinetobacter baumannii
Procedure, shortened: as §5

[7] = tested on: B. cepacia NCTC 10743; test: General MIC protocol, Gram negative; assay type: cell-based; conditions: Burkholderia cepacia, NCTC10743
Procedure, shortened: as §5

[8] = tested on: B. cepacia LMG 17997; test: General MIC protocol, Gram negative; assay type: cell-based; conditions: Burkholderia cepacia, LMG17997
Procedure, shortened: as §5

[9] = tested on: A. baumannii NCTC 13424; test: General MIC protocol, Gram negative; assay type: cell-based; conditions: Acinetobacter baumannii, NCTC13424
Procedure, shortened: as §5

[10] = tested on: A. baumannii W1; test: General MIC protocol, Gram negative; assay type: cell-based; conditions: Acinetobacter baumannii
Procedure, shortened: as §5

[11] = tested on: B. cepacia CEP509 (LMG 18821); test: General MIC protocol, Gram negative; assay type: cell-based; conditions: Burkholderia cepacia, LMG18821
Procedure, shortened: as §5

[12] = tested on: A. baumannii NCTC 13302; test: General MIC protocol, Gram negative; assay type: cell-based; conditions: Acinetobacter baumannii, NCTC13302
Procedure, shortened: as §5

[13] = tested on: A. baumannii UKA2; test: General MIC protocol, Gram negative; assay type: cell-based; conditions: Acinetobacter baumannii
Procedure, shortened: as §5

[14] = tested on: K. pneumonia NCTC 46704; test: General MIC protocol, Gram negative; assay type: cell-based; conditions: Klebsiella pneumoniae, NCTC46704
Procedure, shortened: as §5

[15] = tested on: B. cenocepa K56-2; test: General MIC protocol, Gram negative; assay type: cell-based
Procedure, shortened: as §5

[16] = tested on: resistant mutants of KP 13438; test: MIC following resistance development; assay type: cell-based, Klebsiella; conditions: Klebsiella, OFKP13438, read-out: MIC of resistant mutants (in brackets)
Protocol: (§6) General Minimum Inhibitory Concentration (MIC) Protocol
as §1, §2, §3
(§7) 4. Make up compound to a concentration of 64 μg/ml in water (or alternatively to twice the chosen maximum concentration to be tested).
as §4
(§8) 6. Using a multichannel pipette take 100 μl from the 2nd column wells and pipette into 3rd column wells and repeat down the 96 well plate (remembering to include controls i.e. uninfected media and media with no antibiotic).
(§9) 7. To each well (except uninfected control row H) add 100 μl of bacterially infected media at a concentration of 1×10^6/ml.
(§10) 8. This dilutes down the concentration of the antibiotic by half (top dose is therefore 32 μg/ml in column 1) and also gives you a starting bacterial concentration of 5×10^5/ml.
(§11) 9. Wrap plate with parafilm to prevent evaporation.
(§12) 10. Leave at desired temperature (37° C. unless specified elsewhere) for 20 hours.
(§13) 11. Next day check plates for growth and measure optical density (i.e. absorbance) at a wavelength of 600 nm (OD600).
(§14) An example of such a plate is shown in FIG. 1 where column A represents wells that receive the top dose 100 μl; column B represents wells that receive the top dose 100 μl+100 μl TSB; and column C represents wells that receive 100 μl TSB. Row H which is marked by a box labelled D represents a blank where the cells receive no bacteria.
(§15) The MIC of PP-A418 and colistin against the strains used in the time kill analysis of Example 31 following resistance development were measured. The MIC was measured using the general MIC protocol given above. The results are given in Table 14 below where the MIC values of resistant mutants are shown in the brackets.

[17] = tested on: resistant mutants of KP 13368; test: MIC following resistance development; assay type: cell-based, Klebsiella; conditions: Klebsiella, OFKP13368, read-out: MIC of resistant mutants (in brackets)
Protocol: as §6, §1, §2, §3, §7, §4, §8, §9, §10, §11, §12, §13, §14, §15

[18] = tested on: resistant mutants of KP 16; test: MIC following resistance development; assay type: cell-based, Klebsiella; conditions: Klebsiella, OFKP16, read-out: MIC of resistant mutants (in brackets)
Protocol: as §6, §1, §2, §3, §7, §4, §8, §9, §10, §11, §12, §13, §14, §15

[19] = tested on: Klebsiella KP 342; test: General MIC protocol, Gram negative; assay type: cell-based; conditions: Klebsiella, KP342
Protocol: as §6, §1, §2, §3, §7, §4, §8, §9, §10, §11, §12, §13, §14
The minimum inhibitory concentration (MIC) was measured using the general MIC protocol given above.

COc1cc2c(cc1OCCCC(=O)Nc1cc(C(=O)Nc3ccc4sc(C(=O)N(C)C)cc4c3)n(C)c1)N=C[C@@H]1CCCN1C2=O [KMR-14-33, (S)—N-(2-(dimethylcarbamoyl)benzo[b]thiophen-5-yl)-4-(4-((7-methoxy-5-oxo-2,3,5,11a-tetrahydro-1H-benzo[e]pyrrolo[1,2-a][1,4]-diazepin-8-yl)oxy)butanamido)-1-methyl-1H-pyrrole-2-carboxamide]
MIC ([1]; NCTC13438, read-out: +CCCP MIC): 0.5 µg/mL (≈ 0.761 µM) | MIC ([1]; NCTC13438, read-out: Control with no EPI MIC): 0.5 µg/mL (≈ 0.761 µM) | +PABN MIC ([1]; NCTC 13438, PABN at 25 μg/ml): 0.125 µg/mL | +PABN + Mg MIC ([1]; NCTC 13438, PABN at 25 μg/ml with 1 mM MgSO4): 0.25 µg/mL | MIC [2]: 0.5 µg/mL (≈ 0.761 µM) | MIC [3]: 1 µg/mL (≈ 1.52 µM) | MIC [4]: 2 µg/mL (≈ 3.05 µM) | MIC [5]: 0.125 µg/mL (≈ 0.19 µM) | MIC [6]: 0.125 µg/mL (≈ 0.19 µM) | MIC [7]: 1 to 2 µg/mL (≈ 1.52 to 3.05 µM) | MIC [8]: 0.125 µg/mL (≈ 0.19 µM) | MIC [9]: 0.5 µg/mL (≈ 0.761 µM) | MIC [10]: 1 µg/mL (≈ 1.52 µM) | MIC [11]: 2 µg/mL (≈ 3.05 µM) | MIC [12]: 0.25 µg/mL (≈ 0.381 µM) | MIC [13]: 0.5 µg/mL (≈ 0.761 µM) | MIC [14]: 1 µg/mL (≈ 1.52 µM) | MIC [15]: 2 µg/mL (≈ 3.05 µM)

COc1cc2c(cc1OCCCC(=O)Nc1cc(C(=O)Nc3ccc4oc(C(=O)N5CCSCC5)cc4c3)n(C)c1)N=C[C@@H]1CCCN1C2=O [PP-A148, (S)-4-(4-((7-methoxy-5-oxo-2,3,5,11a-tetrahydro-1H-benzo-[e]pyrrolo[1,2-a][1,4]diazepin-8-yl)oxy)butanamido)-1-methyl-N-(2-(thiomorpholine-4-carbonyl)benzofuran-5-yl)-1H-pyrrole-2-carboxamide]
MIC [16]: 64 µg/mL | MIC [17]: > 128 µg/mL | MIC [18]: 4 to 8 µg/mL | MIC [19]: 4 to 8 µg/mL (≈ 5.72 to 11.4 µM)
